Experiment in all cases: NCI anticancer screen, dose series, 48 h
Experiment [1] has as its system PC-3 prostate.
Experiment [2] has as its system MDA-N.
The test system of experiment [3] is HCC-2998 colon.
For experiment [4], the system named is HT29 colon.
Experiment [5] concerns NCI-H23 lung.
Experiment [6] concerns NCI-H522 lung.
The subject of experiment [7] is ACHN renal.
The test system of experiment [8] is U251 CNS.
Experiment [9] has as its system OVCAR-5 ovarian.
Experiment [10] has as its system TK-10 renal.
Experiment [11] has as its system EKVX NSCLC.
Experiment [12] relates to NCI/ADR-RES ovarian.
In experiment [13] the test system is SNB-75 CNS.
The subject of experiment [14] is K-562 leukemia.
Experiment [15] deals with HL-60(TB) leukemia.
Experiment [16] relates to SK-MEL-28 melanoma.
In experiment [17] the test system is RXF 393 renal.
Experiment [18] concerns CAKI-1 renal.
The test system of experiment [19] is OVCAR-8 ovarian.
Experiment [20] relates to NCI-H226 lung.

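48-hour exposure; five concentrations; linearly interpolated endpoints. TGI: concentration producing complete growth inhibition.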

On to `CSc1cc(Cl)c(C(=O)Nc2ccccc2)cc1S(=O)(=O)n1cc[nH]c1=O`, for which the TGI in experiment [1], in [2], in [3], in [4], in experiment [5] and in experiment [6] was over 100 µM each time. For the same molecule, the TGI in experiment [7], in experiment [8], in experiment [9], in [10], in experiment [11] and in experiment [12] was over 100 µM in each case. Besides, the TGI in [13], in experiment [14], in experiment [15], in experiment [16], in [17] and in experiment [18] was over 100 µM each time. In addition, the TGI in experiment [19] was over 100 µM.

For `Cc1cc(O)c(C(O)c2ccccn2)cc1O` (configuration not stated), the TGI in experiment [1] stood at 29.1 µM; in experiment [2] it was 36.2 µM; in experiment [3], 70.3 µM; in experiment [4] it was 44 µM; in [5] it was 42.6 µM; in experiment [6], 14.7 µM. For the same molecule, the TGI in experiment [7] was 18.4 µM; in [8], over 100 µM; in experiment [9], 33.8 µM; in [10], 31.8 µM; in [11] it was 36.5 µM; in experiment [12] it was 72.6 µM. Further, the TGI is 31.9 µM in [13]; over 100 µM in experiment [14]; 53 µM in experiment [15]; 33.5 µM in [16]; 30.2 µM in experiment [17]; 24.2 µM in experiment [18]. Moreover, the TGI in [19] turned out to be 40.8 µM.

Take `CCCCCCCCCCCC(=O)OCC(O)CO` (configuration not stated): the TGI in [1], in experiment [2], in [4], in experiment [5], in experiment [6] and in experiment [7] was over 100 µM each time. In addition, the TGI in [8], in [9], in experiment [10], in experiment [11], in experiment [12] and in [13] was over 100 µM in each case. The TGI in experiment [20] was over 100 µM; in experiment [15], 42.3 µM; in experiment [16], over 100 µM; in experiment [18], over 100 µM; in experiment [19], over 100 µM.

With `CCC(=O)NC(NNS(=O)(=O)c1ccc(C)cc1)(C(F)(F)F)C(F)(F)F`, the TGI in experiment [1] was over 100 µM; in experiment [2], 54.3 µM; in [3], over 10 µM; in experiment [5] it was over 100 µM; in experiment [6], 62.4 µM; in [7], over 100 µM. Moreover, the TGI in [8] was over 10 µM; in [9] it was over 100 µM; in experiment [10] it was over 100 µM; in experiment [11] it was over 100 µM; in experiment [12] it was 85.2 µM; in experiment [13] it was over 100 µM. Also, the TGI in experiment [20] is over 100 µM; in experiment [14] it was over 100 µM; in experiment [15], over 100 µM; in experiment [16] it was 61.5 µM; in experiment [17] it was 82.9 µM; in experiment [18], over 100 µM. The molecule also displayed a TGI in [19] of over 100 µM.

As to `N#Cc1ccc(N=NN2CCCC2)cc1`, the TGI in experiment [1], in experiment [2], in experiment [3], in experiment [5], in experiment [6] and in experiment [7] was over 100 µM in each case. The TGI in experiment [8], in [9], in experiment [10], in experiment [11], in experiment [12] and in experiment [13] was over 100 µM each time. Besides, the TGI in experiment [20], in experiment [14], in experiment [15], in [17], in experiment [18] and in [19] was over 100 µM in each case.

Consider `COP(=O)(OC)[C@@](O)(c1ccccc1)[C@@H](O)[C@@H](O)c1ccccc1`, for which the TGI in experiment [1], in experiment [2], in experiment [4], in [5], in experiment [6] and in experiment [7] was over 100 µM in each case. The TGI in experiment [8], in experiment [9], in experiment [10], in experiment [11], in [12] and in experiment [13] was over 100 µM throughout. Moreover, the TGI in experiment [20], in [15], in [16], in [17], in [18] and in experiment [19] was over 100 µM in each case.

In the case of `CCOC1OC(CO[Si](C)(C)C(C)(C)C)C(O)CC1n1ccc(=O)[nH]c1=O` (configuration not stated), the TGI was over 100 µM in experiment [1]; over 100 µM in experiment [2]; over 100 µM in experiment [3]; over 100 µM in [4]; over 100 µM in experiment [5]; 45.6 µM in experiment [6]. For the same molecule, the TGI in experiment [7], in experiment [8], in experiment [9], in [10], in experiment [11] and in experiment [12] was over 100 µM each time. In addition, the TGI in experiment [13] was over 100 µM; in experiment [20] it was over 100 µM; in [14] it was 73.1 µM; in experiment [16] it was over 100 µM; in [17], over 100 µM; in experiment [18], over 100 µM. The TGI in experiment [19] is over 100 µM.

Consider `O=C1/C(=C/c2ccc([N+](=O)[O-])cc2)Oc2cc(O)ccc21`, for which the TGI in experiment [1] is 66.8 µM; in experiment [2], 60.2 µM; in [3], over 100 µM; in [5] it was over 100 µM; in experiment [6], 65.6 µM; in experiment [7] it was 56.1 µM. For the same molecule, the TGI was 93 µM in [8]; 82.5 µM in experiment [10]; 96.3 µM in experiment [11]; 88.3 µM in experiment [12]; over 100 µM in experiment [13]; 99.1 µM in experiment [20]. The TGI in [14] is 46.9 µM; in [15], 37.4 µM; in experiment [16], over 100 µM; in experiment [17] it was over 100 µM; in [18], 58.7 µM; in experiment [19] it was over 100 µM.

As for `CC(C)(C)c1cc(C(C)(C)C)c(SSc2c(C(C)(C)C)cc(C(C)(C)C)c(O)c2O)c(O)c1O`, the TGI in [1] was determined as 28.5 µM; in [2], 23.9 µM; in experiment [4], 31.5 µM; in experiment [5] it was 22.8 µM; in experiment [6] it was 16.6 µM; in experiment [7], 26.6 µM. The TGI in [8] was 22.2 µM; in experiment [9] it was 31.3 µM; in experiment [11], 35.7 µM; in [12], 70 µM; in experiment [13], 41.9 µM; in experiment [20], 35 µM. The TGI in experiment [14] is 26.2 µM; in [15], 14.6 µM; in experiment [16], 33.8 µM; in experiment [17] it was 47.2 µM; in [18] it was 23.7 µM; in experiment [19] it was 47.7 µM.

With `CC1(C)COC(c2cccc(C(=O)c3ccccc3)c2)=N1`, the TGI was over 100 µM in experiment [1]; over 100 µM in experiment [2]; over 100 µM in experiment [3]; over 100 µM in [4]; over 100 µM in experiment [5]; 88.1 µM in experiment [6]. Besides, the TGI in experiment [7], in experiment [8], in experiment [9], in experiment [10], in experiment [11] and in experiment [12] was over 100 µM in each case. In addition, the TGI in experiment [14] is over 100 µM; in [15], 58 µM; in [16] it was over 100 µM; in experiment [18], over 100 µM; in experiment [19], over 100 µM.

Turning to `CN1CC[C@@]2(c3cccc(O)c3)CC(=O)/C(=C/c3ccc(Cl)c(Cl)c3)[C@H]1C2`, the TGI in [1] was 3.07 µM; in [2] it was 3.77 µM; in [3], 3.37 µM; in experiment [4], 2.72 µM; in experiment [5], 15.9 µM; in [7], 3.38 µM. Also, the TGI in experiment [8] came out at 2.67 µM; in experiment [9], 14.4 µM; in experiment [10], 27 µM; in experiment [11], 21 µM; in experiment [12], 7.09 µM; in experiment [13], 2.63 µM. The TGI in [14] turned out to be 3.66 µM; in experiment [15], 3.82 µM; in experiment [16], 4.65 µM; in experiment [17], 5.62 µM; in experiment [19] it was 10.1 µM.

On to `CC(=O)/C=C1/C(=O)C(CC(C)C)=C1CC(C)C`, for which the TGI in experiment [1], in experiment [2], in experiment [4], in experiment [5], in [6] and in experiment [7] was over 100 µM each time. In addition, the TGI in [8], in experiment [9], in [10], in [11], in experiment [12] and in [13] was over 100 µM throughout. Besides, the TGI in experiment [20], in [15], in experiment [16], in experiment [17], in [18] and in [19] was over 100 µM throughout.

The values above are taken from PubChem BioAssay (NCI).
